Assay results: the supplement of paper PMC10307832

Key:
Test in all cases: relative viability (nuclei count vs DMSO), 5 days (fraction); higher = more cells survive
201T = test system: 201T
Summary of the method: (§1)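 Lung cancer cell lines in 1536-well plates were dosed by pin tool the day after seeding, either with one drug alone or with a fixed anchor-drug dose plus five library-drug doses (not always all listed) in √10 steps. After 5 days, cells were fixed and their nuclei stained in one step (final 0.05% Triton X-100, 1% formaldehyde, 1 ug/ml Hoechst), then counted on 4× images. Relative viability is the nuclei count in treated wells divided by that in vehicle wells. Values are medians of duplicate plates.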

COR-L 105 = test system: COR-L 105
Summary of the method: as §1

ChaGo-K-1 = test system: ChaGo-K-1
Summary of the method: as §1

EKVX = test system: EKVX
Summary of the method: as §1

H3255 = test system: H3255
Summary of the method: as §1

HARA = test system: HARA
Summary of the method: as §1

HCC-827 = test system: HCC-827
Summary of the method: as §1

HOP-62 = test system: HOP-62
Summary of the method: as §1

LCLC-103H = test system: LCLC-103H
Summary of the method: as §1

LOU-NH91 = test system: LOU-NH91
Summary of the method: as §1

NCI-H1975 = test system: NCI-H1975
Summary of the method: as §1

NCI-H2126 = test system: NCI-H2126
Summary of the method: as §1

NCI-H23 = test system: NCI-H23
Summary of the method: as §1

NCI-H2405 = test system: NCI-H2405
Summary of the method: as §1

NCI-H3122 = test system: NCI-H3122
Summary of the method: as §1

NCI-H596 = test system: NCI-H596
Summary of the method: as §1

NCI-H650 = test system: NCI-H650
Summary of the method: as §1

NCI-H661 = test system: NCI-H661
Summary of the method: as §1

NCI-H727 = test system: NCI-H727
Summary of the method: as §1

PC-3 [JPC-3] = test system: PC-3 [JPC-3]
Summary of the method: as §1

SK-LU-1 = test system: SK-LU-1
Summary of the method: as §1

SW 900 = test system: SW 900
Summary of the method: as §1

`CCNC(=O)c1noc(-c2cc(C(C)C)c(O)cc2O)c1-c1ccc(CN2CCOCC2)cc1` [Luminespib] + Nc1ncn([C@H]2C[C@H](O)[C@@H](CO)O2)c(=O)n1 [Decitabine] (partner 2 µM) was tested, and the relative viability (201T; first compound 0.002 µM) was 0.832, the relative viability (201T; first compound 0.006325 µM) was 0.867 and the relative viability (201T; first compound 0.02 µM) was 0.844. For the same compound, the relative viability (201T; first compound 0.06325 µM) was 0.811, the relative viability (201T; first compound 0.2 µM) was 0.827 and the relative viability (COR-L 105; first compound 0.002 µM) was 0.674. The relative viability (COR-L 105; first compound 0.006325 µM) was 0.654, the relative viability (COR-L 105; first compound 0.02 µM) was 0.567 and the relative viability (COR-L 105; first compound 0.06325 µM) was 0.234. For the same compound, the relative viability (COR-L 105; first compound 0.2 µM) was 0.334, the relative viability (ChaGo-K-1; first compound 0.002 µM) was 0.544 and the relative viability (ChaGo-K-1; first compound 0.006325 µM) was 0.492. It also gave a relative viability (ChaGo-K-1; first compound 0.02 µM) of 0.528, a relative viability (ChaGo-K-1; first compound 0.06325 µM) of 0.522 and a relative viability (ChaGo-K-1; first compound 0.2 µM) of 0.535. The relative viability (EKVX; first compound 0.002 µM) was 0.38, the relative viability (EKVX; first compound 0.006325 µM) was 0.31 and the relative viability (EKVX; first compound 0.02 µM) was 0.273. The relative viability (EKVX; first compound 0.06325 µM) was 0.253, the relative viability (EKVX; first compound 0.2 µM) was 0.173 and the relative viability (H3255; first compound 0.002 µM) was 0.639. For the same compound, the relative viability (H3255; first compound 0.02 µM) was 0.446, the relative viability (H3255; first compound 0.06325 µM) was 0.425 and the relative viability (H3255; first compound 0.2 µM) was 0.222. The relative viability (HARA; first compound 0.002 µM) was 0.55, the relative viability (HARA; first compound 0.006325 µM) was 0.569 and the relative viability (HARA; first compound 0.02 µM) was 0.532. For the same compound, the relative viability (HARA; first compound 0.06325 µM) was 0.225, the relative viability (HARA; first compound 0.2 µM) was 0.227 and the relative viability (HCC-827; first compound 0.002 µM) was 0.36. The relative viability (HCC-827; first compound 0.006325 µM) was 0.333, the relative viability (HCC-827; first compound 0.02 µM) was 0.285 and the relative viability (HCC-827; first compound 0.06325 µM) was 0.166. It also gave a relative viability (HCC-827; first compound 0.2 µM) of 0.147, a relative viability (HOP-62; first compound 0.002 µM) of 0.219 and a relative viability (HOP-62; first compound 0.006325 µM) of 0.297. It also gave a relative viability (HOP-62; first compound 0.02 µM) of 0.267, a relative viability (HOP-62; first compound 0.06325 µM) of 0.223 and a relative viability (HOP-62; first compound 0.2 µM) of 0.174. It also gave a relative viability (LCLC-103H; first compound 0.002 µM) of 0.732, a relative viability (LCLC-103H; first compound 0.006325 µM) of 0.702 and a relative viability (LCLC-103H; first compound 0.02 µM) of 0.721. For the same compound, the relative viability (LCLC-103H; first compound 0.06325 µM) was 0.74, the relative viability (LCLC-103H; first compound 0.2 µM) was 0.691 and the relative viability (LOU-NH91; first compound 0.002 µM) was 0.8. The relative viability (LOU-NH91; first compound 0.006325 µM) was 0.844, the relative viability (LOU-NH91; first compound 0.02 µM) was 0.686 and the relative viability (LOU-NH91; first compound 0.06325 µM) was 0.382. The relative viability (LOU-NH91; first compound 0.2 µM) was 0.436, the relative viability (NCI-H1975; first compound 0.002 µM) was 0.393 and the relative viability (NCI-H1975; first compound 0.006325 µM) was 0.346. It also gave a relative viability (NCI-H1975; first compound 0.02 µM) of 0.355, a relative viability (NCI-H1975; first compound 0.06325 µM) of 0.127 and a relative viability (NCI-H1975; first compound 0.2 µM) of 0.144. The relative viability (NCI-H2126; first compound 0.002 µM) was 0.573, the relative viability (NCI-H2126; first compound 0.006325 µM) was 0.587 and the relative viability (NCI-H2126; first compound 0.06325 µM) was 0.593. It also gave a relative viability (NCI-H2126; first compound 0.2 µM) of 0.507, a relative viability (NCI-H23; first compound 0.002 µM) of 0.285 and a relative viability (NCI-H23; first compound 0.006325 µM) of 0.346. It also gave a relative viability (NCI-H23; first compound 0.02 µM) of 0.265, a relative viability (NCI-H23; first compound 0.06325 µM) of 0.164 and a relative viability (NCI-H23; first compound 0.2 µM) of 0.164. The relative viability (NCI-H2405; first compound 0.002 µM) was 0.79, the relative viability (NCI-H2405; first compound 0.02 µM) was 0.627 and the relative viability (NCI-H2405; first compound 0.06325 µM) was 0.297. It also gave a relative viability (NCI-H2405; first compound 0.2 µM) of 0.191, a relative viability (NCI-H3122; first compound 0.002 µM) of 0.474 and a relative viability (NCI-H3122; first compound 0.006325 µM) of 0.413. For the same compound, the relative viability (NCI-H3122; first compound 0.02 µM) was 0.29, the relative viability (NCI-H3122; first compound 0.06325 µM) was 0.418 and the relative viability (NCI-H3122; first compound 0.2 µM) was 0.403. It also gave a relative viability (NCI-H596; first compound 0.002 µM) of 1.07, a relative viability (NCI-H596; first compound 0.006325 µM) of 0.887 and a relative viability (NCI-H596; first compound 0.02 µM) of 0.88. The relative viability (NCI-H596; first compound 0.06325 µM) was 0.991, the relative viability (NCI-H596; first compound 0.2 µM) was 1.01 and the relative viability (NCI-H650; first compound 0.002 µM) was 0.282. For the same compound, the relative viability (NCI-H650; first compound 0.006325 µM) was 0.354, the relative viability (NCI-H650; first compound 0.02 µM) was 0.307 and the relative viability (NCI-H650; first compound 0.06325 µM) was 0.252. It also gave a relative viability (NCI-H650; first compound 0.2 µM) of 0.0854, a relative viability (NCI-H661; first compound 0.002 µM) of 0.554 and a relative viability (NCI-H661; first compound 0.006325 µM) of 0.544. For the same compound, the relative viability (NCI-H661; first compound 0.02 µM) was 0.454, the relative viability (NCI-H661; first compound 0.06325 µM) was 0.315 and the relative viability (NCI-H661; first compound 0.2 µM) was 0.309. The relative viability (NCI-H727; first compound 0.002 µM) was 0.893, the relative viability (NCI-H727; first compound 0.006325 µM) was 0.857 and the relative viability (NCI-H727; first compound 0.02 µM) was 0.652. For the same compound, the relative viability (NCI-H727; first compound 0.06325 µM) was 0.461, the relative viability (NCI-H727; first compound 0.2 µM) was 0.368 and the relative viability (PC-3 [JPC-3]; first compound 0.002 µM) was 0.888. The relative viability (PC-3 [JPC-3]; first compound 0.006325 µM) was 0.842, the relative viability (PC-3 [JPC-3]; first compound 0.02 µM) was 0.705 and the relative viability (PC-3 [JPC-3]; first compound 0.06325 µM) was 0.397. For the same compound, the relative viability (PC-3 [JPC-3]; first compound 0.2 µM) was 0.506, the relative viability (SK-LU-1; first compound 0.002 µM) was 0.725 and the relative viability (SK-LU-1; first compound 0.006325 µM) was 0.462. The relative viability (SK-LU-1; first compound 0.02 µM) was 0.547, the relative viability (SK-LU-1; first compound 0.06325 µM) was 0.198 and the relative viability (SK-LU-1; first compound 0.2 µM) was 0.216. For the same compound, the relative viability (SW 900; first compound 0.002 µM) was 0.478, the relative viability (SW 900; first compound 0.006325 µM) was 0.472 and the relative viability (SW 900; first compound 0.02 µM) was 0.417. For the same compound, the relative viability (SW 900; first compound 0.06325 µM) was 0.156 and the relative viability (SW 900; first compound 0.2 µM) was 0.159.
